Assay results taken from ChEMBL document CHEMBL5506055, “Hit-to-Lead Optimization of the Natural Product Oridonin as Novel NLRP3 Inflammasome Inhibitors with Potent Anti-Inflammation Activity” (J Med Chem, 2024).
Activity calls are given as the source filed them. The calls are words filed in the database; no cut-off is given here.

Legend:
[1] = target: NLR family CARD domain-containing protein 4 (Mus musculus) (UniProt Q3UP24); assay: Inhibition of NLRC4 inflammasome activation in LPS/Poly(dA:dT)-induced C57BL/6 mouse BMDMs at 200 nM […] for 4 hrs followed by compound addition for 30 mins and further Poly(dA:dT) transfected with Lipo-3000 for 4 hrs; format: cell-based; settings: BMDM, time 4.5 hrs
Sequence of NLR family CARD domain-containing protein 4 (Mus musculus) (Q3UP24 whole entry, the tested form may be a part): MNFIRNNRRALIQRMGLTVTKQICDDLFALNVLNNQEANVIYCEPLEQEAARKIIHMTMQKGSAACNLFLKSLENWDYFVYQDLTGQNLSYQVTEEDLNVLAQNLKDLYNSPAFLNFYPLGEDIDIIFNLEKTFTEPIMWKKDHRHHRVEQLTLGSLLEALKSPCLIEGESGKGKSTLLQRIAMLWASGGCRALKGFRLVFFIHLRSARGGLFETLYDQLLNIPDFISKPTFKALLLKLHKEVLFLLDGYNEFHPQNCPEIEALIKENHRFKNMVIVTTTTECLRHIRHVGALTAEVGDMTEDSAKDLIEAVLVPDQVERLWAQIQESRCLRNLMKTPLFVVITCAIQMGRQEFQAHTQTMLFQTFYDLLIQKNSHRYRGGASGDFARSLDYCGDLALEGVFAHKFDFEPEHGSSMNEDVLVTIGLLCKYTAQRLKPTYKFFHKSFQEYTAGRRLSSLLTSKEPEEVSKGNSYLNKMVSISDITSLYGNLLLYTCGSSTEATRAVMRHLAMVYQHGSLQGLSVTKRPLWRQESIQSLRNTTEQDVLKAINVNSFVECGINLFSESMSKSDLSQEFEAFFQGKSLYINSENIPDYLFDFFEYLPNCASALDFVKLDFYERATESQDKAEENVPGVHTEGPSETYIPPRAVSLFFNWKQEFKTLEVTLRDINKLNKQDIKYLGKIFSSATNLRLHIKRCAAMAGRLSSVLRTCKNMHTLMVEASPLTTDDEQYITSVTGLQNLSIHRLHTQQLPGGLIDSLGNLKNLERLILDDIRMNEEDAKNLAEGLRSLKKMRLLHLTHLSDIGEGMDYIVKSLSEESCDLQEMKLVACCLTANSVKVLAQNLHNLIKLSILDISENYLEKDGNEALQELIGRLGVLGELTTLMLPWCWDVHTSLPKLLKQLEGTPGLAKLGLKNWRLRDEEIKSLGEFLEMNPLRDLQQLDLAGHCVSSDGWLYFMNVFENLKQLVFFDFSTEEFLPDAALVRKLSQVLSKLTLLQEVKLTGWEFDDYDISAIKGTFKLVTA

[2] = target: NACHT, LRR and PYD domains-containing protein 3 (Mus musculus) (UniProt Q8R4B8); assay: (§1) Inhibition of NLRP3 inflammasome activation in LPS/ATP-induced C57BL/6 mouse BMDMs assessed as inhibition of ASC oligomerization by measuring reduction in pro-caspase-1 expression at 50 to 200 nM preincubated with LPS for 4 hrs followed by compound addition for 30 mins and further stimulated with ATP for 30 mins by Western blotting analysis; format: cell-based; settings: BMDM, dose 50-200 nM, time 1.0 hrs
Sequence of NACHT, LRR and PYD domains-containing protein 3 (Mus musculus) (Q8R4B8 whole entry, the tested form may be a part): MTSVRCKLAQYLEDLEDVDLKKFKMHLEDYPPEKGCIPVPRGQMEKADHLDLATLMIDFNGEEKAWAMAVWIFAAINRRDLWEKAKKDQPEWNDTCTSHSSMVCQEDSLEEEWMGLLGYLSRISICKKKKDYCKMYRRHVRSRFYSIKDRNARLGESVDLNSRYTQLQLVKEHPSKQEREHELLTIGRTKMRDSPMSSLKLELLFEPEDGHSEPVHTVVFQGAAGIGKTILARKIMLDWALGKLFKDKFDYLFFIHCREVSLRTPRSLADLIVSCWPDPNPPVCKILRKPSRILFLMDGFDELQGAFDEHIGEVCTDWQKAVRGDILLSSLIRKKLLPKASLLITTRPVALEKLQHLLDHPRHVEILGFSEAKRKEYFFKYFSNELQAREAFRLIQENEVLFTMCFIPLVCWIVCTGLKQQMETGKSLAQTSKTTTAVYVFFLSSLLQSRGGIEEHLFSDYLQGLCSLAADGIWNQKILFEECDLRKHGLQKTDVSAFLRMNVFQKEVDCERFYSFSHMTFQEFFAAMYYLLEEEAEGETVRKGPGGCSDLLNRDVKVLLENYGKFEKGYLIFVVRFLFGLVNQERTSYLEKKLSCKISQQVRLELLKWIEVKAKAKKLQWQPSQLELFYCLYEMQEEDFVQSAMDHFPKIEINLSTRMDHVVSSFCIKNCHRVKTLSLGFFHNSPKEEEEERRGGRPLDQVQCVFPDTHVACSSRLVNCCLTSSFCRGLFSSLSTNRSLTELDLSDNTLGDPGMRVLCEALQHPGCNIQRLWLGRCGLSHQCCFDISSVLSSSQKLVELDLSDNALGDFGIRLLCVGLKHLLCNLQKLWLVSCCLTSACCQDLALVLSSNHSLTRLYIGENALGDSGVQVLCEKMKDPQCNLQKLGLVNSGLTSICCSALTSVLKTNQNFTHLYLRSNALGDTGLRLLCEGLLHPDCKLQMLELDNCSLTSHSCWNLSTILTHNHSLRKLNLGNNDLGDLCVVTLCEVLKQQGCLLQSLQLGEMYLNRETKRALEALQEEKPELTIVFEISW

[3] = test system: BMDM; assay: Inhibition of mitochondrial ROS production in mouse BMDMs at 200 nM preincubated with LPS for 4 hrs followed by compound addition for 30 mins and further stimulated with ATP for 30 mins by confocal microscopic analysis; format: functional, cell-based; settings: time 1.0 hrs
[4] = target: NACHT, LRR and PYD domains-containing protein 3 (Mus musculus) (UniProt Q8R4B8); assay: Binding affinity to NLRP3 in mouse BMDMs at 100 uM incubated for 30 mins by CETSA; format: cell-based; settings: BMDM
[5] = target: hERG (KCNH2) (Homo sapiens, UniProt Q12809); assay: Inhibition of human ERG expressed in CHO cells at 40 uM relative to control; format: toxicity, cell-based; settings: CHO cells that express human ERG
Sequence of hERG (KCNH2) (Q12809 whole entry): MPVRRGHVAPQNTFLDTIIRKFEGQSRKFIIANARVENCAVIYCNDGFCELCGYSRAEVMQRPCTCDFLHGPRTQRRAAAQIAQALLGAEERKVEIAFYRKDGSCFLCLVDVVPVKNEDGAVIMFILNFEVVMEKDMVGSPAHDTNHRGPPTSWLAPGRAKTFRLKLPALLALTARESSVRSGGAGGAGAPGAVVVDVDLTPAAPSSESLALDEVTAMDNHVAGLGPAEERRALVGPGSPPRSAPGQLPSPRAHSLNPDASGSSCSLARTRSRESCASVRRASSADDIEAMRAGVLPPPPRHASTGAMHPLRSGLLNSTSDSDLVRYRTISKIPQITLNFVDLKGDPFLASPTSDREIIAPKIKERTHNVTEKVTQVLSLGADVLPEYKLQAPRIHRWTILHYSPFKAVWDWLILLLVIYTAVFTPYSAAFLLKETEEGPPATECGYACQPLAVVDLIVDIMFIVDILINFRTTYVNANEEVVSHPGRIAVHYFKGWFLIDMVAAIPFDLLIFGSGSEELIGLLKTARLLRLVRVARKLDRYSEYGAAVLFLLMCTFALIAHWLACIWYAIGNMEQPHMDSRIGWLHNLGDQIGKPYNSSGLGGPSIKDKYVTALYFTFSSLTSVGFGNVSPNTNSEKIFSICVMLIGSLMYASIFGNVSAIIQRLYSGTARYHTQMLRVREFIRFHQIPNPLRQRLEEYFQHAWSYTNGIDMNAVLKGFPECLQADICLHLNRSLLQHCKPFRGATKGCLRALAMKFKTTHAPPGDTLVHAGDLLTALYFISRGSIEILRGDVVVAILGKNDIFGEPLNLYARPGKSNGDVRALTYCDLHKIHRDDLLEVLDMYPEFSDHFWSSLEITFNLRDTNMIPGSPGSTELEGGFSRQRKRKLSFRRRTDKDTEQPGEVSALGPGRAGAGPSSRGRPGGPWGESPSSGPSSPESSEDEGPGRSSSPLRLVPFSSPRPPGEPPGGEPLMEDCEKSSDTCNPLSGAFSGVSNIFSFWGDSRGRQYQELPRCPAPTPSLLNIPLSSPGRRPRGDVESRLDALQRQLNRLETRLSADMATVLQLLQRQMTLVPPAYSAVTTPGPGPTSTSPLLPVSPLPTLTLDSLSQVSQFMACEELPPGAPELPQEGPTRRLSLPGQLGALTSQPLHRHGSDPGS

[6] = Half-life in ICR mouse at 10 mg/kg, po measured upto 24 hrs by LC-MS/MS method; format: ADME, organism-based; settings: in vivo
[7] = target: NACHT, LRR and PYD domains-containing protein 3 (Mus musculus, UniProt Q8R4B8); assay: Inhibition of NLRP3 inflammasome activation in LPS/ATP-induced C57BL/6 mouse BMDMs assessed as reduction in IL-1beta secretion preincubated with LPS for 4 hrs followed by compound addition for 30 mins and further stimulated with ATP for 30 mins by ELISA; format: cell-based, BMDM
Sequence of NACHT, LRR and PYD domains-containing protein 3 (Q8R4B8 whole entry, the tested form may be a part): as the sequence (Q8R4B8 whole entry, the tested form may be a part) above

[8] = target: NACHT, LRR and PYD domains-containing protein 3 (Mus musculus) (UniProt Q8R4B8); assay: Inhibition of NLRP3 inflammasome activation in LPS/ATP-induced C57BL/6 mouse BMDMs assessed as reduction in TNFalpha production at 50 to 200 nM preincubated with compound prior to LPS addition for 30 mins and further stimulated with ATP for 30 mins by Western blotting analysis; format: cell-based; settings: BMDM, dose 50-200 nM, time 60.0 min
[9] = target: T1, Interferon-inducible protein AIM2 (Mus musculus) (UniProt Q91VJ1); assay: Inhibition of AIM2 inflammasome activation in LPS/flagellin-induced C57BL/6 mouse BMDMs at 200 nM […] for 4 hrs followed by compound addition for 30 mins and further stimulated with flagellin for 4 hrs; format: cell-based; settings: BMDM, time 4.5 hrs
T1 sequence (whole entry): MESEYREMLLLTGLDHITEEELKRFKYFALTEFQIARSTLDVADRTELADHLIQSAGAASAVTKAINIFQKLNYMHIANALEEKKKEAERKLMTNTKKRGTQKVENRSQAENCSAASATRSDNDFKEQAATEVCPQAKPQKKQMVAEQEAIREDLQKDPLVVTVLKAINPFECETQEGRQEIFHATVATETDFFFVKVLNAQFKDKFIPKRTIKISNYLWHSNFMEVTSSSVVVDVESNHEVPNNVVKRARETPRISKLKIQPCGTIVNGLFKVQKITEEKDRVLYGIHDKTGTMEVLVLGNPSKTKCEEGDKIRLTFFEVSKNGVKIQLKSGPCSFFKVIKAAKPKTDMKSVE

[10] = target: NACHT, LRR and PYD domains-containing protein 3 (Mus musculus) (UniProt Q8R4B8); assay: as §1, with “IL-1beta secretion” for “pro-caspase-1 expression”; format: cell-based; settings: BMDM, dose 50-200 nM, time 1.0 hrs
[11] = target: NACHT, LRR and PYD domains-containing protein 3 (Mus musculus) (UniProt Q8R4B8); assay: as §1, with “NLRP3” for “pro-caspase-1”; format: cell-based; settings: BMDM, dose 50-200 nM, time 1.0 hrs
[12] = test system: Mus musculus; assay: Antiinflammatory activity in C57BL/6 mouse model of arthritis assessed as reduction in MSU-induced IL-1beta secretion at 12.5 to 25 mg/kg, iv measured upto 24 hrs; format: functional, organism-based; settings: dose 12.5-25 mg/kg
[13] = target: NACHT, LRR and PYD domains-containing protein 3 (Mus musculus) (UniProt Q8R4B8); assay: Inhibition of NLRP3 inflammasome activation in LPS/ATP-induced C57BL/6 mouse BMDMs assessed as reduction in maturation of pro-caspase-1 preincubated with LPS for 4 hrs followed by compound addition for 30 mins and further stimulated with ATP for 30 mins by ELISA; format: cell-based; settings: BMDM, time 1.0 hrs
[14] = Stability in human liver microsomes assessed as half life preincubated for 5 mins with NADPH followed by compound addition and measured upto 120 mins by LC-MS/MS analysis; format: ADME, Microsome; settings: time < 125 min
[15] = target: NACHT, LRR and PYD domains-containing protein 3 (Mus musculus) (UniProt Q8R4B8); assay: Inhibition of NLRP3 inflammasome activation in LPS/ATP-induced C57BL/6 mouse BMDMs assessed as reduction in IL-1beta secretion at 100 nM preincubated with LPS for 4 hrs followed by compound addition for 30 mins and further stimulated with ATP for 30 mins by ELISA relative to control; format: cell-based; settings: BMDM, time 1.0 hrs
[16] = test system: Mus musculus; assay: Antiinflammatory activity in C57BL/6 mouse model of arthritis assessed as reduction in MSU-induced joint swelling at 12.5 to 25 mg/kg, iv measured upto 24 hrs; format: functional, organism-based; settings: dose 12.5-25 mg/kg
[17] = Cmax in ICR mouse at 10 mg/kg, po measured upto 24 hrs by LC-MS/MS method; format: ADME, organism-based; settings: in vivo
[18] = target: NACHT, LRR and PYD domains-containing protein 3 (Mus musculus) (UniProt Q8R4B8); assay: Inhibition of NLRP3 inflammasome activation in LPS/nigericin-induced C57BL/6 mouse BMDMs at 200 nM preincubated with LPS for 4 hrs followed by compound addition for 30 mins and further stimulated with nigericin for 30 mins by ELISA; format: cell-based; settings: BMDM, time 1.0 hrs
[19] = target: Voltage-gated inwardly rectifying potassium channel KCNH2 (Homo sapiens, UniProt Q12809); assay: Inhibition of human ERG expressed in CHO cells; format: toxicity, cell-based
Sequence of Voltage-gated inwardly rectifying potassium channel KCNH2 (Q12809 whole entry): as the sequence (Q12809 whole entry) above

[20] = test system: Mus musculus; assay: Antiinflammatory activity in MSU-induced C57BL/6 mouse model of arthritis at 100 mg/kg, po measured upto 24 hrs; format: functional, organism-based
[21] = target: NACHT, LRR and PYD domains-containing protein 3 (Mus musculus) (UniProt Q8R4B8); assay: Inhibition of NLRP3 inflammasome activation in LPS-induced C57BL/6 mouse BMDMs assessed as reduction in IL-1beta level preincubated with Pam3CSK4 for 3 hrs followed by compound addition for 30 mins and further LPS transfected with Lipo-3000 for 16 hrs by ELISA; format: cell-based; settings: BMDM, dose 50-200 nM, time 16.5 hrs
[22] = test system: Mus musculus; assay: Antiinflammatory activity in C57BL/6 mouse model of arthritis assessed as reduction in MSU-induced TNFalpha secretion at 12.5 to 25 mg/kg, iv measured upto 24 hrs; format: functional, organism-based; settings: dose 12.5-25 mg/kg
[23] = Clearance in ICR mouse at 1 mg/kg, iv measured upto 24 hrs by LC-MS/MS method; format: ADME, organism-based; settings: in vivo
[24] = target: NACHT, LRR and PYD domains-containing protein 3 (Mus musculus) (UniProt Q8R4B8); assay: Inhibition of NLRP3 inflammasome activation in LPS/ATP-induced C57BL/6 mouse BMDMs assessed as reduction in TNFalpha level at 1000 nM preincubated for 30 mins followed by LPS addition for 4 hrs and further ATP stimulation for 30 mins by ELISA; format: cell-based; settings: BMDM, time 5.0 hrs
[25] = target: NACHT, LRR and PYD domains-containing protein 3 (Mus musculus) (UniProt Q8R4B8); assay: Inhibition of NLRP3 inflammasome activation in LPS/MSU-induced C57BL/6 mouse BMDMs at 200 nM preincubated with LPS for 4 hrs followed by compound addition for 30 mins and further stimulated with MSU for 6 hrs by ELISA; format: cell-based; settings: BMDM, time 6.5 hrs

In the case of `C=C1C(=O)[C@]23[C@H](O)[C@H]1CC[C@H]2[C@]12C=CCC(C)(C)[C@H]1[C@H](O)[C@@]3(OCCC(=O)O)OC2`, the inhibition [1] is reported as “Active”, the inhibition [2] is reported as “inactive” and the inhibition [3] is reported as “inactive”. For the same molecule, the Activity [4] was “Active”, the inhibition at 40 µM [5] was 22% and the half-life [6] was 1.6 h. The IC50 [7] was 0.0772 µM, the inhibition [8] was “inactive” and the inhibition [9] was “Active”. For the same molecule, the inhibition [10] was “Active”, the inhibition [11] was “inactive” and the Activity [12] was “Active”. The inhibition [13] was “Dose-Dependent Effect”, the half-life [14] was 3.03 h and the inhibition [15] was 64.3%. For the same molecule, the Activity [16] was “Active”, the Cmax [17] was 279 ng/mL and the inhibition [18] was “Active”. The IC50 [19] was greater than 40 µM, the Activity [20] was “Active” and the inhibition [21] was “Dose-Dependent Effect”. The Activity [22] was “Active”, the clearance [23] was 69.1 mL/min/kg and the inhibition [24] was “Active”. For the same molecule, the inhibition [25] was “Active”.
